From patent US10570184B2, “GLP-1/glucagon receptor co-agonists for medical use” (Novo Nordisk A/S, priority 2014, dated 2020)
Starred links: 1 amine or outer side, 2 acyl side, 3 side chain; linkers in the order of their positions; H or OH if unused. Non-standard residues stand in square brackets, D forms with d. Residues, ends and D or L forms follow the SMILES beside them. Groups on a side chain read outwards from the residue. *: point of attachment. C18 diacid = O=C(O)CCCCCCCCCCCCCCCCC(=O)*; γGlu = O=C(O)[C@H](CCC(=O)[*:2])N[*:1]; Ac4c = NC1(C(=O)O)CCC1; AEEA = NCCOCCOCC(=O)O; Aib = CC(C)(N)C(=O)O

Columns and labels:
[1] = Assay (III) ThT fibrillation assay for physical stability; type: physicochemical; details: 250 μM in 10 mM HEPES buffer, 37° C., shaking 960 rpm
Method in brief: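 Glucagon derivative at 250 μM in 10 mM HEPES pH 7.5 with 1 μM ThT was incubated at 37 °C under 960 rpm orbital shaking. Fluorescence (ex 444/em 485 nm) was read every 20 min and fitted for lag time (t0−2τ) and kapp (1/τ). Recovery was soluble peptide after centrifugation/filtration, by RP-HPLC, as percent of initial.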

[2] = target: T1, human glucagon receptor (Homo sapiens, UniProt P47871); test: Assay (I)(b) glucagon receptor activation, CRE luciferase reporter gene assay in BHK cells; type: cell-based; details: without presence of serum albumin; read-out: GlucagonR EC50 (pM), [Assay (I)(b)]
T1 construct: expressed in transfected cells; host or cells: membranes of BHK cells, clone BHK hGCGR A3*25
Procedure: The purpose of this example was to test the activity or potency, of the glucagon derivatives of the invention, in vitro. The in vitro potency is the measure of human GLP-1 receptor (GLP-1R) or glucagon receptor (glucagonR) activation, respectively, in a whole cell assay. In vitro potency was determined by measuring the response of human GLP-1 or glucagon receptor, respectively, in a reporter gene assay. The assay was performed in a stably transfected BHK cell line that expresses either the human GLP-1 receptor or the human glucagon receptor and contains the DNA for the cAMP response element (CRE) coupled to a promoter and the gene for firefly luciferase (CRE luciferase). […] When assay incubation was completed, the luciferase substrate (luciferin) was added and the enzyme converted luciferin to oxyluciferin and produces bioluminescence. The luminescence was measured as the readout for the assay. The cells used in this assay (clone pLJ6′-4-25) were BHK cells with BHK570 as a parent cell line expressing the CRE luciferase gene (clone BHK/KZ10-20-48) and were established by further transfection with the human glucagon receptor (clone pLJ6′ in pHZ-1 vector). The cells were cultured at 5% CO2 in DMEM medium with 10% FBS, 1×GlutaMAX, 1 mg/ml G418, 240 nM MTX (methotrexate) and 1% pen/strep (penicillin/streptomycin). They were aliquoted and stored in liquid nitrogen. Before each assay, an aliquot was taken up and washed three times in PBS before being suspended at the desired concentration in assay medium. For 96-well plates the suspension was made to give a final concentration of 5×10EE3 cells/well. The following chemicals were used in the assay: Pluronic F-68 (10%) (Gibco 2404), ovalbumin (Sigma A5503), DMEM w/o phenol red (Gibco 11880-028), 1 M Hepes (Gibco 15630), Glutamax 100× (Gibco 35050) and steadylite plus (PerkinElmer 6016757). Assay Medium consisted of DMEM w/o phenol red, 10 mM Hepes, 1× GlutaMAX, 2% Ovalbumin and 0.2% Pluronic F-68. Cell stocks were thawed in a 37° C. water bath. Cells were washed three times in PBS. The cells were counted and adjusted to 5×10EE3 cells/50 μl (1×10EE5 cells/ml) in Assay Medium. A 50 μl aliquot of cells was transferred to each well in the assay plate. Stocks of the test compounds and reference compounds were diluted to a concentration of […] in Assay Medium. Compounds were diluted 10-fold to give the following concentrations: 2×10EE-6 M, 2×10EE-7 M, 2×10EE-8 M; 2×10EE-9 M, 2×10EE-10 M, 2×10EE-11 M, 2×10EE-12 M and 2×10EE-13 M. For each compound a blank assay medium control was also included. A 50 μl aliquot of compound or blank was transferred from the dilution plate to the assay plate. Compounds were tested at the following final concentrations: 1×10EE-6 M, 1×10EE-7 M, 1×10EE-8 M; 1×10EE-9 M, 1×10EE-10 M, 1×10EE-11 M and 1×10EE-12 M and 1×10EE-13 M. The assay plate was incubated for 3 h in a 5% CO2 incubator at 37° C. The assay plate was removed from the incubator and allowed to stand at room temperature for 15 min. A 100 μl aliquot of steadylite plus reagent was added to each well of the assay plate (reagent is light sensitive). Each assay plate was covered with aluminum foil to protect it from light and shaken for 30 min at room temperature. Each assay plate was read in a Perkin Elmer TopCount NXT instrument. The data from the TopCount instrument was transferred to GraphPad Prism software. The software performed a non-linear regression (log(agonist) vs response-Variable slope (four parameter)). EC50 values were calculated by the software and reported in pM.

T1 sequence (P47871 26-477): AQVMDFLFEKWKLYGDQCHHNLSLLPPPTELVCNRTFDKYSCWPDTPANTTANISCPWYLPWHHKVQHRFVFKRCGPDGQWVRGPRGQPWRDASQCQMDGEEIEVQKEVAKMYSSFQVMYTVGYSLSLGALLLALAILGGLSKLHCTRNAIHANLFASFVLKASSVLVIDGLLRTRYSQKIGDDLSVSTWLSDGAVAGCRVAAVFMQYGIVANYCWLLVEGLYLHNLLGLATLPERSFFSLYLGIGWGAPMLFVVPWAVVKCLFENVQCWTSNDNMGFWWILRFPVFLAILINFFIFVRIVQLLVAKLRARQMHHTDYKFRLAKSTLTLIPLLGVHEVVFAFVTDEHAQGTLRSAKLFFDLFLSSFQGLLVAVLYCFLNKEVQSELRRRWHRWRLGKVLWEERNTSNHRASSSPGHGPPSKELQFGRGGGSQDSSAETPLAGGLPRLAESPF

ThT Assay Lag time (h) [Assay (III), pH 7.5] [1] | EC50 [2] | Structure (SMILES)
45.0 h | 66 pM | CC[C@H](C)[C@H](NC(=O)[C@H](CC(C)C)NC(=O)[C@H](Cc1c[nH]c2ccccc12)NC(=O)[C@H](CCC(N)=O)NC(=O)[C@@H](NC(=O)[C@H](Cc1ccccc1)NC(=O)[C@H](CC(=O)O)NC(=O)[C@H](CCCNC(=N)N)NC(=O)[C@H](C)NC(=O)[C@H](CCCNC(=N)N)NC(=O)[C@H](CCCNC(=N)N)NC(=O)[C@H](C)NC(=O)[C@H](CC(=O)O)NC(=O)[C@H](CC(C)C)NC(=O)[C@H](Cc1ccc(O)cc1)NC(=O)[C@H](CCCCN)NC(=O)[C@H](CO)NC(=O)[C@H](CC(C)C)NC(=O)[C@H](CC(=O)O)NC(=O)[C@H](CO)NC(=O)[C@@H](NC(=O)[C@H](Cc1ccccc1)NC(=O)[C@@H](NC(=O)CNC(=O)[C@H](CCC(N)=O)NC(=O)C(C)(C)NC(=O)[C@@H](N)Cc1c[nH]cn1)[C@@H](C)O)[C@@H](C)O)C(C)C)C(=O)N[C@@H](CO)C(=O)N[C@@H](CCCCNC(=O)CC[C@H](NC(=O)CC[C@H](NC(=O)COCCOCCNC(=O)COCCOCCNC(=O)CC[C@H](NC(=O)CCCCCCCCCCCCCCCCC(=O)O)C(=O)O)C(=O)O)C(=O)O)C(N)=O [Chem. 27, N^ε29-[(4S)-4-carboxy-4-[[(4S)-4-carboxy-4-[[2-[2-[2-[[2-[2-[2-[[(4S)-4-carboxy-4-(17-carboxyheptadecanoylamino)butanoyl]amino]ethoxy]ethoxy]acetyl]amino]ethoxy]ethoxy]acetyl]amino]butanoyl]amino]butanoyl]-[Aib2,Leu10,Ala16,Arg20,Ile27,Ser28,Lys29]-Glucagon amide] (H-H[Aib]QGTFTSDLSKYLDARRARDFVQWLISK([γGlu-γGlu-AEEA-AEEA-γGlu-C18 diacid])-NH2; N-terminus assumed)
5.0 h | 32 pM | CC[C@H](C)[C@H](NC(=O)[C@H](CC(C)C)NC(=O)[C@H](Cc1c[nH]c2ccccc12)NC(=O)[C@H](CCC(N)=O)NC(=O)[C@@H](NC(=O)[C@H](Cc1ccccc1)NC(=O)[C@H](CCC(=O)O)NC(=O)[C@H](CCCNC(=N)N)NC(=O)[C@H](C)NC(=O)[C@H](CCCNC(=N)N)NC(=O)[C@H](CCCNC(=N)N)NC(=O)[C@H](CO)NC(=O)[C@H](CCC(=O)O)NC(=O)[C@H](CC(C)C)NC(=O)[C@H](Cc1ccc(O)cc1)NC(=O)[C@H](CCCCN)NC(=O)[C@H](CO)NC(=O)[C@H](CC(C)C)NC(=O)[C@H](CC(=O)O)NC(=O)[C@H](CO)NC(=O)[C@@H](NC(=O)[C@H](Cc1ccccc1)NC(=O)[C@@H](NC(=O)CNC(=O)[C@H](CCC(N)=O)NC(=O)C1(NC(=O)[C@@H](N)Cc2c[nH]cn2)CCC1)[C@@H](C)O)[C@@H](C)O)C(C)C)C(=O)N[C@@H](CCCCNC(=O)COCCOCCNC(=O)COCCOCCNC(=O)CC[C@H](NC(=O)CC[C@H](NC(=O)CCCCCCCCCCCCCCCCC(=O)O)C(=O)O)C(=O)O)C(=O)N[C@H](C(N)=O)[C@@H](C)O [Chem. 18, N^ε28-[2-[2-[2-[[2-[2-[2-[[(4S)-4-carboxy-4-[[(4S)-4-carboxy-4-(17-carboxyheptadecanoylamino)butanoyl]amino]butanoyl]amino]ethoxy]ethoxy]acetyl]amino]ethoxy]ethoxy]acetyl]-[Acb2,Leu10,Glu15,Arg20,Glu21,Ile27,Lys28]-Glucagon amide] (H-H[Ac4c]QGTFTSDLSKYLESRRAREFVQWLIK([AEEA-AEEA-γGlu-γGlu-C18 diacid])T-NH2)
